Assay results: US6040149A, “Assay for identifying agents which act on the ceramide-activated protein kinase, kinase suppressor of ras, and methods of using said agents” (priority 1997, dated 2000)
Read-outs that look alike come from different tables or passages of the source.

Assays:
[1] = tested on: ceramide-activated protein kinase; assay: EGFR peptide phosphorylation by kinase in A-431 microsomal membranes / postnuclear supernatant; type: biochemical, human (A-431 epidermoid carcinoma cells)
Procedure: Kinetics of ^32 Pi incorporation into the EGFR peptide. […] The reaction was initiated by addition of 50 μl of [γ-^32 P]ATP (150 μM final concentration) and terminated by addition of 50 μl of 0.5 M ATP in 90% (vol/vol) formic acid. Samples were spotted on phosphocellulose paper, washed with 1 M acetic acid/4 mM pyrophosphate, and ^32 P incorporation was measured by liquid-scintillation counting, as described. A boiled protein blank was subtracted from each data value. The data (means) represent duplicate samples from one of two similar experiments. […]
Kinetics of ceramide-induced ^32 Pi incorporation into EGFR peptide. Peptide phosphorylation was done as described in FIG. 2 in the absence (.smallcircle.) or presence (.circle-solid.) of 0.5 μM C8 -ceramide. Phosphorylated peptide was resolved by HPLC. Values (means) represent data from three experiments.
Concentration-dependence of ceramide-induced ^32 Pi incorporation into EGFR peptide. Peptide phosphorylation reactions were done as described for FIG. 2, for 2 minutes, using various concentrations of ceramide (0.001-3 μM). Phosphorylated peptide was resolved by HPLC. Values (means) represent data from three experiments. […]
Phosphorylation was initiated at 22° C. by addition of 50 μl of [γ-^32 P] ATP (150 μM final concentration; 4000 dpm/pmol). For studies with lipid activators, ceramide and other lipids were dried under N2 and resuspended in the kinase assay buffer by bath sonication for 2 minutes at 37° C.
Phosphorylated peptide was quantified by two separate methods. For initial studies, samples were spotted on phosphocellulose paper, washed in 1 M acetic acid/4 mM pyrophosphate and subjected to liquid scintillation counting, according to methods well known to those skilled in the art. Values obtained from a boiled blank or a sample lacking peptide were subtracted from each determination. Alternatively, HPLC was done according to methods well known to those skilled in the art. For these studies, samples were first applied to a C18 Sep-Pak cartridge and eluted with 99.9% acetonitrile/0.1% trifluoroacetic acid. The eluates were lyophilized, resuspended in 6 M guanidine hydrochloride/200 mM Tris, pH 8.5 and applied to a C18 reverse-phase column (Dynamax, 4.6 mm i.d., Rainin, Woburn, Mass.). The peptide was eluted with a linear gradient (1% per minute) of acetonitrile at a flow rate of 1 ml/minute and was detected by measuring the Cerenkov radiation associated with 1-ml fractions.

[2] = tested on: ceramide-activated protein kinase; assay: Ceramide-activated protein kinase activity (EGFR peptide) in EL-4 cell fractions; settings: baseline, EL-4 membranes
Procedure: Effect of IL-1β on ceramide-activated protein kinase activity. […] Homogenates were centrifuged at 500×g for 5 minutes to remove nuclei and at 200,000×g for 30 minutes to prepare microsomal membranes. Membranes were resuspended into homogenizing buffer (2.2 μg membrane protein μl^-1). For assay of kinase activity, the reaction mixture contained 20 μl of microsomal membrane, 40 μl EGFR peptide (4 mg ml^-1 in 25 mM Hepes, pH 7.4) and 100 μl buffer (50 mM HEPES, pH 7.4, 20 mM MgCl2). Phosphorylation was initiated at 22° C. by addition of 40 μl [γ-^32 P] ATP (100 μM final concentration) and terminated at the indicated times by addition of 40 μl of 0.5 M ATP in 90% formic acid. Phosphorylated peptide was eluted from a C18 Sep pak cartridge (Millipore), lyophilized, and resolved by C18 reverse phase HPLC using a linear gradient of acetonitrile. […] All assays were performed under conditions determined as linear for time and enzyme concentration. Enzyme activity was determined from the percent conversion of substrate to product and the specific radioactivity of [γ-^32 P] ATP. […] Values (mean±range) represent duplicate determinations from two experiments.
Activity was measured by the transfer of ^32 P from the γ-position of ATP to EGFR peptide (AA 663-681 of the EGFR). The effect of IL-1β on kinase activity was determined using microsomal membranes derived from cells stimulated with IL-1β.

[3] = tested on: ceramide-activated protein kinase; settings: nuclei-free supernates, ref. [40], cited from earlier work
CAP kinase = assay: Phosphorylation of Raf-1 peptides by CAP kinase; type: biochemical, bovine (brain)
[4] = tested on: ceramide-activated protein kinase; assay: Ceramide-activated protein kinase activity toward MBP after HL-60 cell treatment; type: cell-based, human (HL-60 cells)
Procedure: Membrane proteins (200 μg) from treated and untreated cells were subjected to SDS-PAGE and kinase activity was renatured as above. Autophosphorylation was allowed to proceed for 10 min and the gel was washed for 20 min with four changes of 50 mM HEPES buffer, pH 7.4. Gel slices were then excised from regions corresponding to 100-110 KDa, crushed, and incubated for 1 h with 10μ MBP (5 mg ml^-1) and 40 μl kinase reaction mixture in the presence of [γ-^32 P]ATP (50 μM final concentration). Reactions were terminated by addition of 10 μl Laemmli buffer, boiling for 3 min, and centrifugation of gel particles. The supernates were subjected to electrophoresis and autoradiography.
Since prior studies correlated enhanced autophosphorylation of ceramide-activated protein kinase with increased kinase activity toward exogenous substrate, the effect of kinase activity toward MBP was examined after treatment of HL-60 cells with lipid A. For these studies, gel slices corresponding to ceramide-activated protein kinase were subjected to autophosphorylation for 10 min in buffer containing ATP (50 μM final concentration), and then were washed and incubated with MBP in a kinase reaction mixture containing [γ-^32 P]ATP [119]. After termination of reactions, samples were subjected electrophoresis and visualized by autoradiography. […] Enhancement of MBP phosphorylation was detectable at 0.5 min of lipid A treatment and maximal at 15 min.

[5] = tested on: ceramide-activated protein kinase; assay: CAP kinase activation in HL-60 cells (renaturation and autophosphorylation); type: cell-based, human (HL-60 cells)
Procedure: Stimulation of ceramide-activated protein (CAP) kinase by lipid A. On the day of an experiment, HL-60 cells were resuspended (1×10^6 cells ml^-1) into serum-free RPMI 1640 containing 5 μg ml^-1 insulin and transferrin. After 2 h, cells were stimulated with lipid A (Escherichia Coli) or diluent (DMSO, <0.01%). Ceramide-activated protein kinase contained within microsomal membranes was detected by renaturation and autophosphorylation. Briefly, membrane proteins (200 μg per lane) were separated by SDS-PAGE (10%), and the gel was washed with two changes of buffer (50 mM Tris, pH 7.4, 5 mM 2-mercaptoethanol) containing 20% 2-propanol at room temperature for 1 h, and once in buffer without 2-propanol for 1 h. Denaturation was accomplished by incubation of the gel in two changes of 6M guanidinium HCl in wash buffer for 1 h each. Renaturation was accomplished by incubation of the gel overnight at 4° C. in wash buffer containing 0.04% Tween-20. The gel was then equilibrated for 10 min at room temperature in kinase reaction mixture (25 mM HEPES, pH 7.4, 10 mM MgCl2, 0.5 mM EGTA and 5 mM NaF) and [γ-^32 p] ATP (50 μM final concentration; 1000 dpm pmol^-1) was added. Autophosphorylation was terminated by removal of the reaction mixture. The gel was washed with 6 changes of buffer (5% trichloroacetic acid, 1% sodium pyrophosphate) for 2 h and subjected to autoradiography. Top panel--Time course of lipid A activation. Bottom panel--Dose response at 5 minutes of lipid A stimulation. Autoradiograms represent one of three similar studies in both panels A and B.
On the day of an experiment, cells were resuspended (1×10^6 cells ml^-1) into serum-free RPMI 1640 containing 5 μg ml^-1 insulin and transferrin. After 2 h, cells were stimulated with lipid A or diluent (DMSO, <0.01% ). […] The postnuclear supernate was centrifuged at 200,000×g for 30 min and microsomal membranes were resuspended ([…]) into homogenizing buffer. Ceramide-activated protein kinase was detected by renaturation and autophosphorylation. Briefly, membrane proteins (200 μg per lane) were separated by SDS-PAGE (10%), and the gel was washed with two changes of buffer (50 mM Tris, pH 7.4, 5 mM 2-mercaptoethanol) containing 20% 2-propanol at room temperature for 1 h, and once in buffer without 2-propanol for 1 h. Denaturation was accomplished by incubation of the gel in two changes of 6M guanidinium HCl in wash buffer for 1 h each. Renaturation was accomplished by incubation of the gel overnight at 4° C. in wash buffer containing 0.04% Tween-20. The gel was then equilibrated for 10 min at room temperature in kinase reaction mixture (25 mM HEPES, pH 7.4, 10 mM MgCl2, 0.5 mM EGTA and 5 mM NaF) and [γ-^32 P] ATP (50 μM final concentration; 1000 dpm pmol^-1. Autophosphorylation was terminated by removal of the reaction mixture. The gel was washed with 6 changes of buffer (5% trichloracetic acid, 1% sodium pyrophosphate) for 2 h and subjected to autoradiography.
For studies involving activation of ceramide-activated protein kinase by LPS, HL-60 cells (13×10^6 ml^-1) were handled as above, and LPS (Salmonella typhosa, 50 ng ml^-1), recombinant LBP (1.7 μg ml^-1) or both LPS and LBP were added for the times indicated. Isolation of microsomal membranes and autophosphorylation of ceramide-activated protein kinase were performed as above.

For `Nc1ncnc2c1ncn2[C@@H]1O[C@H](COP(=O)(O)OP(=O)(O)OP(=O)(O)O)[C@@H](O)[C@H]1O` [ATP, adenosine triphosphate], the Km ([1]; 5 minutes, Lineweaver-Burke, read-out: apparent Km (ATP)) is given as 15 µM, the Km ([2]; read-out: Km (ATP)) is given as 70 µM and the Km ([3]; read-out: Km (ATP)) is given as 15 µM.

With “NH2 -Glu-Leu-Val-Glu-Pro-Leu-Thr-Pro-Ser-Gly-Glu-Ala-Pro-Asn-Gln-Ala-Leu-Leu-Arg-COOH (H-ELVEPLTPSGEAPNQALLR-OH) [EGFR peptide]” the “apparent Km (EGFR peptide)” value ([1]; 5 minutes, Lineweaver-Burke) was 0.25 mg/mL, the “apparent Vmax” value ([1]; EGFR peptide phosphorylation) was 100-200 pmol.min^-1.mg of protein^-1 and the “Km (EGFR peptide)” value [2] was 0.15 mg/mL. For the same molecule, the maximum reaction velocity [2] was 12.5 pmol min^-1 mg^-1 of microsomal membrane protein and the “Km (peptide)” value [3] was 0.25 mg/mL.

In the case of “RQRSTSTPNVHMVSAALPVDSRMIE [AALP (SEQ ID NO: 6)]”, the “phosphorylation of Raf-1 peptide by CAP kinase” value (CAP kinase) is reported as “failed to phosphorylate”.

For lipid A, the “onset of enhanced MBP phosphorylation” value ([4]; lipid A) was 0.5 min, the “time of maximal MBP phosphorylation” value ([4]; lipid A) was 15 min and the “enhancement of MBP phosphorylation” value ([4]; lipid A-treated HL-60 cells) was 5 fold. For the same molecule, the “maximal activation of ceramide-activated protein kinase” value ([5]; 500 nM lipid A, of control) was 5 fold, the “earliest detection of increased autophosphorylation” value ([5]; early kinetics studies) was 30 s and the “concentration of maximal effect” value ([5]; lipid A) was 500 nM. The lowest effective concentration ([5]; lipid A) was 10 nM, the “duration of enhanced autophosphorylation” value ([5]; lipid A 5 μM) was 60 min and the “enhancement of autophosphorylation detected at” value ([5]; lipid A 5 μM) was 5 min.
